Where a name gives a salt, the structure may show the parent alone. Read-outs that look alike come from different tables or passages of the source.

In one experiment the target is hNav1.7 (Homo sapiens (Human), UniProt Q15858). The experiment is described as follows: Ligand binding assay: tritiated sulfonamide binding to membranes from cells expressing hNav1.7 and the β1 subunit.
The target in a further experiment is NaV1.7 (Homo sapiens (Human), UniProt Q15858). The experiment is described as follows: Electrophysiological assay (EP), patch voltage clamp, NaV1.7. It is filed as cell-based. The settings on record: HEK-293 cells stably expressing human NaV1.7 with β1 subunit, whole-cell patch clamp, held at −60 mV (inactivated state). As to the method:
NaV1.7 and NaV1.5 cDNAs (NM_002977 and AG 137587; SCN5A, respectively) were stably expressed in HEK-293 cells.
Control sodium currents were measured in 0.5% DMSO.
Series resistance compensation was applied (60-80%).
Background: The patch-clamp technique gives a direct electrical read-out from membranes.

[1] abbreviates: read-out: Ligand Binding Assay, competition with 100 pM [3H]compound, membranes with hNav1.7 and β1 subunit, room temperature, 18 h.

Chain of hNav1.7 (Q15858 whole entry): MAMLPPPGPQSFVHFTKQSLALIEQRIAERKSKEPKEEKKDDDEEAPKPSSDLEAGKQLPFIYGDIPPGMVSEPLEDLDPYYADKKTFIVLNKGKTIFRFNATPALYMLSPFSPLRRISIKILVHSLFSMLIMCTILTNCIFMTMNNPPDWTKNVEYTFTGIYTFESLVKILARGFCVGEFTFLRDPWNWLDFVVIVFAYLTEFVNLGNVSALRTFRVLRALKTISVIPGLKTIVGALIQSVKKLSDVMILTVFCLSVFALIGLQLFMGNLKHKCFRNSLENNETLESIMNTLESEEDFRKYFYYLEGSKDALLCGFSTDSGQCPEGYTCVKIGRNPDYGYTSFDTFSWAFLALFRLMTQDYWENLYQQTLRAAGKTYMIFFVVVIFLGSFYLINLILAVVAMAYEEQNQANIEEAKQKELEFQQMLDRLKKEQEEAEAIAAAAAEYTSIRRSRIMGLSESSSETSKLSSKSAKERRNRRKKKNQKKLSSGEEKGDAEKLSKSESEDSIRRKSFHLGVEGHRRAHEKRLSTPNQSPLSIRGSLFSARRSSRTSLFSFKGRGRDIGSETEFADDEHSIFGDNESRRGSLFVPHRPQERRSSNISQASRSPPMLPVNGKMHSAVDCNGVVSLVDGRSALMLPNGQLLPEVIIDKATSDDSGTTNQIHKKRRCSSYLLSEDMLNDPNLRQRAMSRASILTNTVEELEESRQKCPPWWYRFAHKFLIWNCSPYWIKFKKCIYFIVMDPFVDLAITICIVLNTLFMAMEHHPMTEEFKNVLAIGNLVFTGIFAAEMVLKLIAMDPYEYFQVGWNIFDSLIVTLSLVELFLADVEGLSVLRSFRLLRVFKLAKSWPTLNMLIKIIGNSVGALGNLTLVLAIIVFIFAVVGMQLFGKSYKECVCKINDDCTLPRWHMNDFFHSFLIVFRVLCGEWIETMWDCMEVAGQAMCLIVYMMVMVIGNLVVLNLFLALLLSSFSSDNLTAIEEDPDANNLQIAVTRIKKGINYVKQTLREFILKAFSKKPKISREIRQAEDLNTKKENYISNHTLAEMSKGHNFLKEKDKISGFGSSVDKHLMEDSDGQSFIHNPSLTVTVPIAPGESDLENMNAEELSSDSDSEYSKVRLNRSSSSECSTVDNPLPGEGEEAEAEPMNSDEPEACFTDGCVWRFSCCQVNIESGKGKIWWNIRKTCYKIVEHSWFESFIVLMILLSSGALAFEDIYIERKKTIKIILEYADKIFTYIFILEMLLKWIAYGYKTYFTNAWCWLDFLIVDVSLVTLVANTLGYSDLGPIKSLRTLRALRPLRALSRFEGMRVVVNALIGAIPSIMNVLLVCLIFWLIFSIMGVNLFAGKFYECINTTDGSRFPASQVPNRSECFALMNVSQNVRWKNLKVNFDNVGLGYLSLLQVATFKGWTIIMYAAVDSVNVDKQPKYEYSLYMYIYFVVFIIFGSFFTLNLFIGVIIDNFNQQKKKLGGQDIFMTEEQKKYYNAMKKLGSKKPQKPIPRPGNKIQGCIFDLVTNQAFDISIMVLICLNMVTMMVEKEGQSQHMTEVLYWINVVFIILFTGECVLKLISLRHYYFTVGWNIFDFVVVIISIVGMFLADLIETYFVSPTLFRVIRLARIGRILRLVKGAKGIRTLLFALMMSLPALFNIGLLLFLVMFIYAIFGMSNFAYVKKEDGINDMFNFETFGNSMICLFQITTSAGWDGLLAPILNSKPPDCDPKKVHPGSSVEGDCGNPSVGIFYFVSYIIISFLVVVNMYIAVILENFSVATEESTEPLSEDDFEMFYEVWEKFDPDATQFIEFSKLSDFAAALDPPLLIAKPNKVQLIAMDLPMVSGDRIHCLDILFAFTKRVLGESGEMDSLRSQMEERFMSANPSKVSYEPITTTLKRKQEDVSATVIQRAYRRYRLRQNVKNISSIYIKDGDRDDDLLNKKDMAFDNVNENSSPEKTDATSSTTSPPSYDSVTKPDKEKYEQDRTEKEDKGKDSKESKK
Chain of hNav1.7 (Q07699 19-218 partner): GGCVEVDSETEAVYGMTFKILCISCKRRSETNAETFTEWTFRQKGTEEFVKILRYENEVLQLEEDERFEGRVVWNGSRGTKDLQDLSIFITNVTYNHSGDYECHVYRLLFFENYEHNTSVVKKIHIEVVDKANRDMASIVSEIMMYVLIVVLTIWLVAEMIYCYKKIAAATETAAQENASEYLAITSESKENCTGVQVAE
Chain of NaV1.7 (Q15858 other isoform, or with tags, fused parts or gaps): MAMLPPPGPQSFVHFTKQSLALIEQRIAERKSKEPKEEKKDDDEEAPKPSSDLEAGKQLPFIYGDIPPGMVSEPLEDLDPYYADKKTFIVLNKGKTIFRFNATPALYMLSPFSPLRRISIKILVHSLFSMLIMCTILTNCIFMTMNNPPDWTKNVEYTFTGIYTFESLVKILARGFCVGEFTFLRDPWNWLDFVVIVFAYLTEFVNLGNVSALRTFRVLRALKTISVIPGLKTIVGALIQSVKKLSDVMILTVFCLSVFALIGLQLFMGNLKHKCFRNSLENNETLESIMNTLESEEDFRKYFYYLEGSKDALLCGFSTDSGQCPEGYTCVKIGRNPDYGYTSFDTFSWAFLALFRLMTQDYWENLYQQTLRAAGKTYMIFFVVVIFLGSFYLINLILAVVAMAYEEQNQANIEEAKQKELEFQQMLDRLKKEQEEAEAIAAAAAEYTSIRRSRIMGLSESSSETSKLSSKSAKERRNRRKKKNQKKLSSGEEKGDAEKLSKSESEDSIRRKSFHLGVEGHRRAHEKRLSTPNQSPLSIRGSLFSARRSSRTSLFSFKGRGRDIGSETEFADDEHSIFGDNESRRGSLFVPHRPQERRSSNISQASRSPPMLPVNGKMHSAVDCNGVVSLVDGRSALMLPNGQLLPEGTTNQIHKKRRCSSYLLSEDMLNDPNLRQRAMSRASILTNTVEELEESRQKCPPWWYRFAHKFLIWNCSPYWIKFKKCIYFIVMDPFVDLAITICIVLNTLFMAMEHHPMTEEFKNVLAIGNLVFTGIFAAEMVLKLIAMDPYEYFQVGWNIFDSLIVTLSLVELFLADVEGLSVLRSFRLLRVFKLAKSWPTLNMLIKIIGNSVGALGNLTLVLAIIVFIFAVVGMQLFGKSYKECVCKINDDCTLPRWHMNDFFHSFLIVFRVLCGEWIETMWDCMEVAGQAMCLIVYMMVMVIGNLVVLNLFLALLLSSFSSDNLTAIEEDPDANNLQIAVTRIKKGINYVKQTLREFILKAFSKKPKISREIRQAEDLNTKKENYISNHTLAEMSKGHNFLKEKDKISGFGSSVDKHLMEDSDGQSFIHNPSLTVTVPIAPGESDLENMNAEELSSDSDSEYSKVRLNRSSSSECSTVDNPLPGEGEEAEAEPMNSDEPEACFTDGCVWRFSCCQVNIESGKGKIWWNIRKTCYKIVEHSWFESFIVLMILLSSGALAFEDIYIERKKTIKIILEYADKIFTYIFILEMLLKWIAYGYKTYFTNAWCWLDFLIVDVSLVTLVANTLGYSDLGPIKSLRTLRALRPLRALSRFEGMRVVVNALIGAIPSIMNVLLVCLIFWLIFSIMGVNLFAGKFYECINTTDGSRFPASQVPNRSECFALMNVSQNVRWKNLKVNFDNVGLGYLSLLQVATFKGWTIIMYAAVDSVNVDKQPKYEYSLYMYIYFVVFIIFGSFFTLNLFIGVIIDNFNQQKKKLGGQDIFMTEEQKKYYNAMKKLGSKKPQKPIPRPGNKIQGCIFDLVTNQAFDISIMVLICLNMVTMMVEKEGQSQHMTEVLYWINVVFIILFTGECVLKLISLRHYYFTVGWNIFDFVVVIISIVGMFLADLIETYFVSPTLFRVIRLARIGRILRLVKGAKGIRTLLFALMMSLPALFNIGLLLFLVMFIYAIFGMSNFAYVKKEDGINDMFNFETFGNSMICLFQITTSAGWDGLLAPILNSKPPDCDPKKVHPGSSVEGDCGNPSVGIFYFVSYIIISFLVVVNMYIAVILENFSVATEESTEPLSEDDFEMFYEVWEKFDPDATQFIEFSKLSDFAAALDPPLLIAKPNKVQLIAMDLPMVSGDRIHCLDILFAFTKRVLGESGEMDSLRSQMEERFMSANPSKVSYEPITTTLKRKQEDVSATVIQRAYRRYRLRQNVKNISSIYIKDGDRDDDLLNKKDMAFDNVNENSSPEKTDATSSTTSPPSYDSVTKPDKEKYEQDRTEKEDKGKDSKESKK
Chain of NaV1.7 (Q07699 19-218 partner): as the sequence (Q07699 19-218 partner) above

Consider `CS(=O)(=O)NC(=O)c1cc(C2CC2)c(OCC2CCN(S(=O)(=O)C3COC3)CC2)cc1F` [Example 392, 5-cyclopropyl-2-fluoro-N-(methylsulfonyl)-4-((1-(oxetan-3-ylsulfonyl)piperidin-4-yl)methoxy)benzamide], for which, at hNav1.7 (setting [1]), the IC50 came out at 2060 nM.

Turning to `C[C@H](c1cc(Cl)cc(Cl)c1)N1CCC[C@H](COc2cc(F)c(C(=O)NS(C)(=O)=O)cc2C2CC2)C1` (single isomer, unassigned) [Example 337, trifluoroacetic acid salt], the IC50 on hNav1.7 (setting [1]) amounted to 11.1 nM.

Turning to “(S)-5-cyclopropyl-N-(cyclopropylsulfonyl)-4-((1-(1-(3,5-dichlorophenyl)ethyl)-4-fluoropiperidin-4-yl)methoxy)-2-fluorobenzamide [Example 350]”, the IC50 on hNav1.7 (setting [1]) came out at 4.5 nM.

The molecule `CS(=O)(=O)NC(=O)c1cc(C2CC2)c(CN2CCN(S(=O)(=O)c3cc(Cl)cc(Cl)c3)CC2)cc1F` [Example 526, 5-cyclopropyl-4-((4-((3,5-dichlorophenyl)sulfonyl)piperazin-1-yl)methyl)-2-fluoro-N-(methylsulfonyl)benzamide, trifluoroacetic acid salt] came in with an IC50 on hNav1.7 of 20.2 nM.

As to “(S)-5-cyclopropyl-4-((1-(1-(3,5-dichlorophenyl)ethyl)-4-fluoropiperidin-4-yl)methoxy)-2-fluoro-N-(methylsulfonyl)benzamide, trifluoroacetic acid salt [Example 349]”, the IC50 on hNav1.7 (setting [1]) is 4 nM.

Turning to `CS(=O)(=O)NC(=O)c1cc(C2CC2)c(OCC2CCN(Cc3cccc(Cl)c3)CC2)cc1F` [Example 92, 4-((1-(3-Chlorobenzyl)piperidin-4-yl)methoxy)-5-cyclopropyl-2-fluoro-N-(methylsulfonyl)benzamide], the IC50 on hNav1.7 (setting [1]) came out at 30.5 nM.

In the case of `O=C(NS(=O)(=O)C1CC1)c1cc(C2CC2)c(CN2CCC(Oc3ccc(C(F)(F)F)cn3)CC2)cc1F` [Example 477, 5-cyclopropyl-N-(cyclopropylsulfonyl)-2-fluoro-4-((4-((5-(trifluoromethyl)pyridin-2-yl)oxy)piperidin-1-yl)methyl)benzamide, trifluoroacetic acid salt], the IC50 on hNav1.7 (setting [1]) came to 14.2 nM.

As to `O=C(NS(=O)(=O)C1CC1)c1cc(Cl)c(O[C@@H]2CCCN(Cc3ccc(F)cc3Cl)C2)cc1F` [Example 39, (R)-5-chloro-4-((1-(2-chloro-4-fluorobenzyl)piperidin-3-yl)oxy)-N-(cyclopropylsulfonyl)-2-fluorobenzamide, trifluoroacetic acid salt], the IC50 at hNav1.7 (setting [1]) stood at 6.8 nM.

With `C[C@@H]1CC[C@@H](COc2cc(F)c(C(=O)NS(C)(=O)=O)cc2C2CC2)CN1[C@@H](C)c1cc(Cl)cc(Cl)c1` (single isomer, unassigned) [Example 342, trifluoroacetic acid salt], the IC50 at hNav1.7 (setting [1]) was 5.7 nM.

As to `C[C@@H](c1cc(Cl)cc(Cl)c1)N1CCC[C@H](COc2cc(F)c(C(=O)NS(C)(=O)=O)cc2C2CC2)C1` (single isomer, unassigned) [Example 338, trifluoroacetic acid salt], on hNav1.7 (setting [1]), the IC50 amounted to 7.4 nM.

As to `C[C@@H](c1cc(Cl)cc(Cl)c1)N1CCC(COc2cc(F)c(C(=O)NS(=O)(=O)C3CC3)cc2C2CC2)CC1` (single isomer, unassigned) [Example 270], the IC50 came out at 5 nM on hNav1.7 (setting [1]) and 5.8 nM against NaV1.7.

`C[C@@H](c1cc(Cl)cc(Cl)c1)N1CCC[C@@H](Oc2cc(F)c(C(=O)NS(C)(=O)=O)cc2C2CC2)C1` [Example 50]: the IC50 at hNav1.7 (setting [1]) stood at 1.9 nM.

With “(R)-5-cyclopropyl-4-((1-(3,5-dichlorobenzyl)-2-oxopiperidin-4-yl)methoxy)-2-fluoro-N-(methylsulfonyl)benzamide [Example 234]”, the IC50 on hNav1.7 (setting [1]) came out at 170 nM.

For the origin of these results see patent publication US9694002B2, “Substituted benzamides and methods of use thereof” (GENENTECH, INC., priority 2013, dated 2017).
